Experimental data from patent publication US20220304352A1, “TASTE-MODIFYING COMPOUNDS AND USES THEREOF” (Firmenich SA, priority 2019, published 2022).

What was measured:
Type in all cases: in vivo
trained panelists [1] = experiment: Sensory evaluation of saltiness in 0.25% NaCl base (trained panel, scale -5 to 5)
Description: (§1) A panel consisting of 25 trained panelists evaluated samples at 5, 10 or 20 ppm for taste properties (salt and/or umami, or KCl taste) on a scale of −5 to 5 (−5 denoted strong masking effect and 5 denoted strong enhancing effect, 0 being the intensity of a reference water solution containing 0.25% NaCl or 0.25% KCl or 0.05% MSG or 1.5% chicken broth base). A panel consisted of 25 trained panelists evaluated samples at 5 ppm for taste properties (salt and/or umami) on a scale of −5 to 5 (−5 denoted strong masking effect and 5 denoted strong enhancing effect, 0 being the intensity of a reference water solution containing 0.25% NaCl or 0.05% MSG or 1.5% chicken broth base). • 1) Sensory Evaluation

trained panelists [2] = experiment: Sensory evaluation of umami in 0.05% MSG base (trained panel, scale -5 to 5)
Description: as §1

trained panelists [3] = experiment: Sensory evaluation of saltiness and KCl taste in 0.25% KCl base (trained panel, scale -5 to 5); settings: 0.25% KCl base, 20 ppm
Description: A panel consisting of 25 trained panelists evaluated samples at 5, 10 or 20 ppm for taste properties (salt and/or umami, or KCl taste) on a scale of −5 to 5 (−5 denoted strong masking effect and 5 denoted strong enhancing effect, 0 being the intensity of a reference water solution containing 0.25% NaCl or 0.25% KCl or 0.05% MSG or 1.5% chicken broth base).

| SMILES | saltiness enhancement (trained panelists [1]; 5 ppm, with nose-clip) | saltiness enhancement (trained panelists [1]; 5 ppm, without nose-clip) | umami enhancement (trained panelists [2]; 5 ppm, with nose-clip) | umami enhancement (trained panelists [2]; 5 ppm, without nose-clip) | saltiness enhancement (trained panelists [1]; 10 ppm, with nose-clip) | saltiness enhancement (trained panelists [1]; 10 ppm, without nose-clip) | umami enhancement (trained panelists [2]; 10 ppm, with nose-clip) | umami enhancement (trained panelists [2]; 10 ppm, without nose-clip) | also measured |
| --- | --- | --- | --- | --- | --- | --- | --- | --- | --- |
| O=C(NCCO)c1ccc(O)cc1 [Compound III] | significantly enhanced saltiness | significantly enhanced saltiness | enhanced umami | enhanced umami |  |  |  |  |  |
| O=C(NCCO)c1ccccc1 [Compound II] | significantly enhanced saltiness | enhanced saltiness | enhanced | enhanced umami |  |  |  |  |  |
| O=C(/C=C/c1ccccc1)NCCO [Compound IV] |  |  |  |  | significantly enhanced saltiness | enhanced saltiness | enhanced umami | enhanced umami |  |
| N=C(N)NCCCC(NC(=O)/C=C/c1ccccc1)C(=O)O (stereo not drawn) [Compound VI] | significantly enhanced saltiness intensity |  |  | significantly enhanced umami intensity | enhanced saltiness | enhanced saltiness | enhanced | enhanced |  |
| O=C(/C=C/C=C/c1ccc2c(c1)OCO2)NCCO [Compound V] |  |  |  |  |  |  |  |  | umami enhancement (trained panelists [2]; 20 ppm, with nose-clip): enhanced umami; umami enhancement (trained panelists [2]; 20 ppm, without nose-clip): enhanced umami; KCl taste masking (trained panelists [3]; with nose-clip): significantly masked KCl taste; saltiness enhancement (trained panelists [3]; with nose-clip): enhanced saltiness; KCl taste masking (trained panelists [3]; without nose-clip): significantly masked KCl taste; saltiness enhancement (trained panelists [3]; without nose-clip): enhanced saltiness |
